Series [1] in a line: Metabolic stability in mouse liver S9 fraction. As to conditions: male, CD-1, mouse, s9. On the procedure:
(§1) Shimadzu HPLC system including vacuum degasser, gradient pumps, reverse phase HPLC column, column oven, and autosampler with an API 4000 QTRAP mass spectrometer (Applied Biosystems/MDS Sciex (AB Sciex) with Turbo V ion source and TurboIonspray interface were used. The reference compound midazolam, which is metabolized both by phase I and phase II enzymes, was used. The elimination constant (kel), half-life (t1/2), and intrinsic clearance (Clint) were determined[19] (Table S1).

Series [2] can be described thus: Metabolic stability in human liver S9 fraction. On the procedure: as §1
Supplementary Figure 1. […] Test compounds (1 μM, final DMSO concentration 1%) were incubated at 37 °C with shaking at 100 rpm. Four time points over 120 minutes have been analyzed. The reactions were stopped by adding 420 μL of acetonitrile-water mixture (90:10). Supernatants were analyzed by the HPLC system coupled with a tandem mass spectrometer. The percentage (in % of initial concertation) of the test compounds remaining after incubation in plasma and their half-lives (t1/2) were calculated. […] The stability of the compound was tested in human liver S9 fraction. Cofactors were used such as UDPGA (for glucuronidation), PAPS (for sulfation), and reduced glutathione (for conjugation of GSH). Compounds were tested in triplicate with or without NADPH. Propantheline and midazolam were used as unstable control compounds in the experiments. Data represent the means±S.D. from at least three independent samples.

Series [3] relates to HepaRG KO CAR cells. Briefly: RT-qPCR mRNA expression in HepaRG KO CAR cells. The series is classed as cell-based, human. Particulars: Phenobarbital 500 μM, CITCO 1 μM, MI 883 1 μM; ctrl = 1. (Real-time PCR tracks product formation cycle by cycle.)
From the text: (§2) HepaRG cells from Biopredic (Rennes, France) were cultivated and differentiated on the 12-well plates. […] Several batches of HepaRG KO CAR (CAR Knockout HepaRG™ Cells, MTOX1012-1VL, RRID:CVCL_B6AA) and PXR Knockout HepaRG™ Cells, MTOX1011-1VL, RRID:CVCL_B6AS) cells have been obtained from Sigma-Aldrich/Merck (Darmstadt, Germany) and cultivated according to the provider’s protocols. […] Experiments with HepaRG KO PXR and HepaRG KO CAR cells have been performed in duplicates at least in two independent experiments.
(§3) RT-qPCR was used to examine gene expression in 2D and 3D PHH, HepaRG cells, or in mouse liver or intestine (ileum) samples as we have described before[60]–[62].
(§4) All qRT-qPCR experiments including Trizol reagent (Life Technologies) total RNA isolation, reverse-transcription using a random hexaprimer, and the MMLV Reverse Transcriptase Kit (ThermoFisher Scientific) we have described before^19. qPCR was performed using TaqMan Fast Advanced Master Mix with TaqMan probes (ThermoFisher Scientific). […] The delta-delta method was used for gene expression quantification normalized to at least two reference genes. Three technical replicates were used for each reaction considering the MIQE guidelines. Data are presented as fold induction to vehicle-treated cells/animals.
The subject of series [4] is PXR-responsive CYP3A4(pER6)-luc construct. As to the kind of experiment: CYP3A4(pER6)-luc luciferase reporter assay in HepG2 cells. Background: A reporter such as luciferase makes a cellular process visible.
Series [5] has as its system LS174T cells (endogenous PXR). As to the kind of experiment: CYP3A4 mRNA RT-qPCR in LS174T cells.
From the text: LS174T human colon adenocarcinoma cells (RRID:CVCL_1384) were used in induction experiments with the subsequent CYP3A4 mRNA RT-qPCR analysis as they express functional endogenous PXR.
Series [6] relates to murine Car. As to conditions: cited from earlier work.
The target in series [7] is T1, CAR-LBD (Homo sapiens, UniProt Q14994).
T1 construct: HIS-tagged CAR-LBD (ThermoFisher Sciences, Cat. No PV4836); purchased ThermoFisher PV4836
T1 sequence (Q14994 109-348 isoform Q14994-2 limits assumed): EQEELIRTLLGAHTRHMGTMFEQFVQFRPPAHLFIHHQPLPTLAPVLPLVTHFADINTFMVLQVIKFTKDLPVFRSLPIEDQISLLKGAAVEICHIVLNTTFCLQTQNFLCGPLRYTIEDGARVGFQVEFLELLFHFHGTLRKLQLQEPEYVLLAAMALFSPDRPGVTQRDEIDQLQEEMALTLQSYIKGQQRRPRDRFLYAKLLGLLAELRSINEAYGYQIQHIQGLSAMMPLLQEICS
Briefly: MARCoNI CAR-LBD coregulator interaction array. The class given is biochemical. Particulars: 100 μM. On the procedure:
The reaction was performed in a fully automated microarray processing and fluorescent imaging platform (PamStation12) at 20 °C for 80 cycles (two cycles per minute). After removal of the unbound CAR-LBD receptor by washing each array with 25 µl Tris-buffered Saline (TBS) buffer, fluorescent images of the PamChip microarrays were obtained using the PamStation12, and then were analyzed for quantification of CAR binding using BioNavigator software (PamGene International B.V.). For data and statistical analysis, BioNavigator was used.
Modulation index (MI) is the log10-transformed relative binding value, which is calculated by the compound’s binding value, relative to the vehicle control (DMSO) binding value.

The test system of series [8] is HepaRG cells. Briefly: RT-qPCR mRNA expression in differentiated HepaRG cells.
From the text: as §2, §3, §4
Setting [9] is: normal mice, ref 10 of the reply (Dempsey et al.).

Where “and” joins values, the source holds several entries; their conditions need not be identical. Equal values may be shown once.

The half-life is how long it takes for the measured level to halve. Lower therefore signals fast loss. What is called microsomal CLint is the capacity of the preparation to metabolise the compound, expressed as a volume cleared per time. A low value points to slow turnover. In series [1], `Cc1ncc2n1-c1ccc(Cl)cc1C(c1ccccc1F)=NC2` [Midazolam, midazolam] yielded a half-life of 3.1 min. The compound further came in with a microsomal CLint in series [1] of 113 µL/min/mg. This compound also yielded a half-life at 2 µM in series [2] (human, s9) of 6.3 ± 0.3 min. In series [2] (human, s9), this compound displayed an intrinsic clearance (microsomal CLint) at 2 µM of 55 ± 2.5 µL/min/mg. In addition, the “Stability in S9 fraction (human liver), % remaining” value in series [2] (time 0 (min), 2 μM) came to 100; in series [2] (time 20) it was 94; in series [2] (time 40) it was 53; in series [2] (time 60), 18; in series [2] (time 120) it was 1.

In the case of `CCC1(c2ccccc2)C(=O)NC(=O)NC1=O` [Phenobarbital], the “CYP2B6 mRNA, RT-qPCR, HepaRG KO CAR (Fig. 1f), replicates” value in series [3] is 2.7 and 1.95 and 2.4.

On to `CCOP(=O)(OCC)C(=Cc1cc(C(C)(C)C)c(O)c(C(C)(C)C)c1)P(=O)(OCC)OCC` [SR12813], for which the “pER6-luc luciferase gene reporter assay (Fig1 m), replicates” value in series [4] (single agent 1μM, ctrl ~1) was 6.4 and 6.3 and 4.7; in series [4] (single agent 10μM), 11.93 and 6.55 and 11. For the same compound, the “RT-qPCR in LS174T (Fig 1 l, CYP3A4 mRNA), replicates” value in series [5] (single agent 1μM, ctrl = 1) was 1.75 and 3.85 and 3.1.

As for `Clc1cnc(Oc2ccc(Oc3ncc(Cl)cc3Cl)cc2)c(Cl)c1` [TCPOBOP], the “suppression of atherosclerotic lesions in the aortic valves” value in series [6] (Ldlr –/– mice) is on record as 60%. In addition, in series [6] (after 2 months), the “decrease of cholesterol content in the liver” value is 25% and the “decrease of cholesterol content in the whole body” value is roughly 50%. In addition, the “increase of fecal excretion of 3H-labeled bile acids” value in series [6] (mice) is ~ 40%. In series [6] (setting [9]), the “colon bsh activity compared to control animals” value is reported as 30%; the “increase of colon unconjugated and total BA pools (not significant)” value is recorded as “about 1.4 fold”.

For `Clc1ccccc1C(c1ccccc1)(c1ccccc1)n1ccnc1` [clotrimazole, reference compound], the CAR-coregulator interaction profile result in series [7] is recorded as “releasing most of the coactivator proteins”.

With `CO[C@H]1/C=C/O[C@@]2(C)Oc3c(C)c(O)c4c(O)c(c(/C=N/N5CCN(C)CC5)c(O)c4c3C2=O)NC(=O)/C(C)=C\C=C\[C@H](C)[C@H](O)[C@@H](C)[C@@H](O)[C@@H](C)[C@H](OC(C)=O)[C@@H]1C` [rifampicin, reference compound], the “PCSK9 mRNA in HepaRG cells” value in series [8] (Supplementary Fig. 10b) was “Marginal effect”. The “SQLE mRNA in HepaRG cells” value in series [8] (rifampicin (5 μM)) is recorded as “weakly but significantly upregulated”.

As for SPA70 [reference compound], the “pER6-luc luciferase gene reporter assay (Fig1 m), replicates” value in series [4] (Rif 1μM + SPA70 10μM) was 1.57 and 1.64 and 1.5; in series [4] (SR12813 1μM + SPA70 10μM), 1.2 and 2 and 3.55; in series [4] (single agent 1μM, ctrl ~1) it was 1.15 and 1.67 and 1.39; in series [4] (single agent 10μM), 1 and 1.1 and 1.26. The “basal expression of SQLE mRNA in HepaRG cells” value in series [8] is reported as “downregulated”. In series [8] (MI-883 at 1 μM, SPA70), the “rifampicin induction of SQLE mRNA in HepaRG cells” value is recorded as “abrogated”. Further, the “CYP2B6 expression relative to control (replicates)” value in series [8] (SPA70 1 μM) was 0.7099 and 0.6385; in series [8] (SPA70 1 μM + CITCO (1 μM)), 0.8 and 0.8395 and 0.9953; in series [8] (SPA70 5 μM), 0.4419 and 0.6247 and 0.5722; in series [8] (SPA70 5 μM + Rif (5 μM)), 0.8063 and 0.705 and 0.7533; in series [8] (SPA70 10 μM), 0.4185 and 0.6476 and 0.5707 and 0.3103; in series [8] (SPA70 10 μM + CITCO (1 μM)), 0.9283 and 0.5126 and 0.8752. The “CYP2B6 expression relative to control (replicates)” value in series [8] (SPA70 10 μM + Rif (5 μM)) is 0.4242 and 0.5514 and 0.5133; in series [8] (SPA70 20 μM), 0.8031 and 0.3464; in series [8] (SPA70 20 μM + CITCO (1 μM)), 1.219 and 0.6292 and 0.9541; in series [8] (SPA70 20 μM + Rif (5 μM)) it was 0.5214 and 0.5645. Also, the “CYP3A4 expression relative to control (replicates)” value in series [8] (SPA70 5 μM + Rif (5 μM)) was 1.181 and 0.9078 and 1.057; in series [8] (SPA70 10 μM + Rif (5 μM)), 0.8451 and 0.9487 and 0.8513 and 0.8231; in series [8] (SPA70 20 μM + Rif (5 μM)), 0.8451 and 0.7532. Further, in series [8] (Supplementary Fig. 10), the “rifampicin-induced and basal CYP3A4 and CYP2B6 mRNA expression in HepaRG cells” value is “suppressed”. Further, the “RT-qPCR in LS174T (Fig 1 l, CYP3A4 mRNA), replicates” value in series [5] (Rif 1μM + test compound 10μM) is 0.37 and 0.6 and 0.8; in series [5] (SR12813 1μM + test compound 10μM), 0.46 and 0.35 and 0.34; in series [5] (single agent 10μM) it was 0.29 and 0.5 and 0.49.

For SPA-70, the “CYP3A4 expression relative to control (replicates)” value in series [8] (SPA-70 1 μM) is 0.8854 and 0.7984; in series [8] (SPA-70 5 μM), 0.7429 and 0.6513 and 0.7215; in series [8] (SPA-70 10 μM) it was 0.443 and 0.6539 and 0.5479 and 0.7562; in series [8] (SPA-70 20 μM), 0.5871 and 0.5215. Besides, the “SQLE expression relative to control (mean)” value came out at 0.6659 in series [8] (SPA-70 1 μM + Rif (5 μM)); 0.6886 in series [8] (SPA-70 1 μM, 48 h); 0.7312 in series [8] (SPA-70 5 μM + Rif (5 μM)); 0.9488 in series [8] (SPA-70 5 μM, 24 h); 0.6267 in series [8] (SPA-70 5 μM, 48 h); 0.7448 in series [8] (SPA-70 10 μM + Rif (5 μM)). Also, the “SQLE expression relative to control (mean)” value in series [8] (SPA-70 10 μM, 24 h) is reported as 0.7277; in series [8] (SPA-70 10 μM, 48 h) it was 0.6494; in series [8] (SPA-70 20 μM + Rif (5 μM)), 0.8792; in series [8] (SPA-70 20 μM, 48 h) it was 0.7487.

These data come from PMC11802874, “The hypolipidemic effect of MI-883, the combined CAR agonist/ PXR antagonist, in diet-induced hypercholesterolemia model” (Nature Communications, 2025).
